Experimental data reported in ChEMBL document CHEMBL5550165, “Novel quinoxaline analogs as telomeric G-quadruplex ligands exert antitumor effects related to enhanced immunomodulation” (Eur J Med Chem, 2024).
The source made the active and inactive calls.

Key:
[1] = system: MDA-MB-231; experiment: Antiproliferative activity against human MDA-MB-231 cells assessed as reduction in tumor spheroid volume at 20 to 40 uM incubated for 7 days by propidium iodide staining based fluorescence analysis; type: functional, cell-based; conditions: dose 20-40 µM, time 7.0 day
[2] = system: 4T1; experiment: Antitumor activity against mouse 4T1 cells implanted in BALB/c mouse assessed as upregulation of gamma-H2AX expression in tumor at 10 mg/kg,ip every other day for 14 days by immunohistochemistry; type: functional, organism-based; conditions: time 14.0 day
[3] = system: MDA-MB-231; experiment: Induction of DNA damage in human MDA-MB-231 cells assessed as upregulation of ATM phosphorylation incubated for 24 hrs by Western blot analysis; type: functional, cell-based
[4] = system: 4T1; experiment: Antitumor activity against mouse 4T1 cells implanted in BALB/c mouse assessed as increase in survival time at 10 mg/kg,ip every other day for 14 days; type: functional, organism-based; conditions: time 14.0 day
[5] = system: 4T1; experiment: Antitumor activity against mouse 4T1 cells implanted in BALB/c mouse assessed as damage in tumor tissue at 10 mg/kg,ip every other day for 14 days by hematoxylin and eosin staining analysis; type: functional, organism-based; conditions: time 14.0 day
[6] = system: Quadruplex DNA; experiment: Binding affinity to G-quadruplex telomeric DNA (unknown origin) assessed as melting temperature by CD spectrophotometric analysis; type: nucleic-acid assay
[7] = Toxicity in BALB/c mouse implanted with mouse 4T1 cells assessed as histopathological change in kidney at 10 mg/kg,ip every other day for 14 days by hematoxylin and eosin staining analysis; type: organism-based; conditions: in vivo, 336 h, time 14 day
[8] = system: Quadruplex DNA; experiment: Binding affinity to KRAS G-quadruplex telomeric DNA (unknown origin) assessed as […] by measuring melting temperature by FRET assay; type: nucleic-acid assay
[9] = system: Quadruplex DNA; experiment: Stabilization of G-quadruplex telomeric24 DNA (unknown origin) at 10 uM incubated for 40 mins by replication based ethidium bromide staining based gel electrophoresis; type: nucleic-acid assay
[10] = system: MDA-MB-231; experiment: Inhibition of cell migration in human MDA-MB-231 cells incubated for 48 hrs by wound scrape assay; type: functional, cell-based
[11] = system: Quadruplex DNA; experiment: Stabilization of G-quadruplex telomeric DNA in human MDA-MB-231 cells assessed as increase in S9.6-positive cell nuclei at 3 uM incubated for 24 hrs by DAPI staining based immunofluorescence microscopic analysis
[12] = system: BMDC; experiment: Induction of immunogenic cell death in BALB/c mouse BMDC cells co-cultured with mouse 4T1 cells assessed as increase in CD11c+ CD80+ CD86 cells maturation at 5 uM incubated for 24 hrs by flow cytometry (reference value: 69.4 %); type: functional
[13] = system: MDA-MB-231; experiment: Inhibition of colony formation in human MDA-MB-231 cells at 0.25 uM incubated for 8 days by crystal violet staining based analysis; type: functional, cell-based; conditions: time 8.0 day
[14] = system: MDA-MB-231; experiment: Induction of DNA damage in human MDA-MB-231 cells assessed as increase in colocalization of TRF2 and gamma-H2AX formation foci in nucleus at 3 uM incubated for 24 hrs by DAPI staining based immunofluorescence analysis; type: functional, cell-based
[15] = system: MDA-MB-231; experiment: Induction of DNA damage in human MDA-MB-231 cells assessed as upregulation of RPA32 expression at 1 to 4 uM incubated for 24 hrs by Western blot analysis; type: functional, cell-based; conditions: dose 1-4 µM
[16] = system: MDA-MB-231; experiment: Induction of DNA damage in human MDA-MB-231 cells assessed as increase in gamma-H2AX level in nucleus at 3 uM incubated for 24 hrs by DAPI staining based immunofluorescence analysis; type: functional, cell-based
[17] = system: Quadruplex DNA; experiment: Stabilization of G-quadruplex telomeric DNA in human MDA-MB-231 cells assessed as R-loop formation in mitochondria by measuring increase in S9.6 intensity at 3 uM incubated for 24 hrs by DAPI staining based immunofluorescence microscopic analysis
[18] = system: MDA-MB-231; experiment: Induction of cell cycle arrest in human MDA-MB-231 cells assessed as accumulation of cells at S phase at 4 uM incubated for 24 hrs by RNase/PI staining based flow cytometry (reference value: 6.3 %); type: functional
[19] = system: 4T1; experiment: Antitumor activity against mouse 4T1 cells implanted in BALB/c mouse assessed as upregulation of cleaved PARP expression in tumor at 10 mg/kg,ip every other day for 14 days by Western blot analysis; type: functional, organism-based; conditions: time 14.0 day
[20] = system: 4T1; experiment: Antitumor activity against mouse 4T1 cells implanted in BALB/c mouse assessed as reduction in tumor volume at 10 mg/kg,ip every other day for 14 days; type: functional, organism-based; conditions: time 14.0 day
[21] = system: MDA-MB-231; experiment: Induction of cell cycle arrest in human MDA-MB-231 cells assessed as accumulation of cells at G0/G1 phase at 4 uM incubated for 24 hrs by RNase/PI staining based flow cytometry (reference value: 82.3 %); type: functional
[22] = system: Quadruplex DNA; experiment: Stabilization of G-quadruplex telomeric DNA in human MDA-MB-231 cells assessed as increase in colocalization of TRF2 and S9.6 formation foci at 3 uM incubated for 24 hrs by DAPI staining based immunofluorescence microscopic analysis; type: cell-based
[23] = system: MDA-MB-231; experiment: Induction of DNA damage in human MDA-MB-231 cells assessed as increase in tail moment at 4 uM incubated for 24 hrs by electrophoresis assay; type: functional, cell-based
[24] = system: MDA-MB-231; experiment: Cytotoxicity against human MDA-MB-231 cells incubated for 24 hrs by CCK-8 reagent based spectrophotometric analysis; type: functional, cell-based; conditions: MDA-MB-231, 24 h
[25] = system: MDA-MB-231; experiment: Induction of cell cycle arrest in human MDA-MB-231 cells assessed as downregulation of Cyclin B1 expression at 1 to 4 uM incubated for 24 hrs by Western blot analysis; type: functional, cell-based; conditions: dose 1-4 µM
[26] = Toxicity in BALB/c mouse implanted with mouse 4T1 cells assessed as histopathological change in lung at 10 mg/kg,ip every other day for 14 days by hematoxylin and eosin staining analysis; type: organism-based; conditions: in vivo, 336 h, time 14 day
[27] = system: Quadruplex DNA; experiment: Binding affinity to c-MYC G-quadruplex telomeric DNA (unknown origin) assessed as […] in melting temperature by FRET assay; type: nucleic-acid assay
[28] = system: MDA-MB-231; experiment: Induction of cell cycle arrest in human MDA-MB-231 cells assessed as accumulation of cells at G0/G1 phase at 2 uM incubated for 24 hrs by RNase/PI staining based flow cytometry (reference value: 82.3 %); type: functional
[29] = system: 4T1; experiment: Antitumor immunity against mouse 4T1 cells implanted in BALB/c mouse assessed as increase in proportion of CD8+ T cells in tumor at 10 mg/kg,ip every other day for 14 days by immunohistochemistry staining based analysis; type: functional, organism-based; conditions: time 14.0 day
[30] = system: 4T1; experiment: Antitumor immunity against mouse 4T1 cells implanted in BALB/c mouse assessed as increase in serum TNF-alpha level at 10 mg/kg,ip every other day for 14 days by ELISA; type: functional, organism-based; conditions: time 14.0 day
[31] = system: MDA-MB-231; experiment: Induction of cell cycle arrest in human MDA-MB-231 cells assessed as accumulation of cells at S phase at 2 uM incubated for 24 hrs by RNase/PI staining based flow cytometry (reference value: 6.3 %); type: functional
[32] = system: MDA-MB-231; experiment: Induction of DNA damage in human MDA-MB-231 cells assessed as increase in multi-nuclei frequency in aberrant cell at 4 uM incubated for 24 hrs by DAPI staining based microscopic analysis; type: functional
[33] = system: Quadruplex DNA; experiment: Binding affinity to G-quadruplex telomeric DNA (unknown origin) assessed as thermal shift at 10 uM by UV-Visible spectrophotometric analysis; type: nucleic-acid assay
[34] = system: MDA-MB-231; experiment: Induction of cell cycle arrest in human MDA-MB-231 cells assessed as accumulation of cells at G2/M phase at 4 uM incubated for 24 hrs by RNase/PI staining based flow cytometry (reference value: 11.3 %); type: functional

CN(C)CCN(C)c1ccc(-c2nc3ccc(C(F)(F)F)cc3nc2-c2ccc(N(C)CCN(C)C)cc2)cc1
70.3%: Activity [21]
8.6%: Activity [18]
81.6%: Activity [28]
66 °C: Tm [6]
1.7 µM: IC50 [24]
20.9%: Activity [34]
6.9%: Activity [31]
Non-Toxic: Activity [7] | Activity [26]
77.9%: Activity [12]
active: Activity [1] | Activity [2] | Activity [3] Dose-Dependent Effect | Activity [4] | Activity [5] | Activity [8] | Activity [9] | inhibition [10] Dose-Dependent Effect | Activity [11] | inhibition [13] | Activity [14] | Activity [15] | Activity [16] | Activity [17] | Activity [19] | Activity [20] | Activity [22] | Activity [23] | Activity [25] | Activity [27] | Activity [29] | Activity [30] | Activity [32] | Activity [33]
